Values of other authors as cited in US20010034023A1, “Gene sequence variations with utility in determining the treatment of disease, in genes relating to drug processing” (priority 1999, published 2001).
Where a name gives a salt, the structure may show the parent alone.

Columns and labels:
[1] = high dose
[2] = PDR
[3] = not given; remark: listed apart in the source
[4] = system: hepatitis C virus infection
[5] = Alzheimer's patients receiving Cognex

## O=c1[nH]cc(F)c(=O)[nH]1 [5-fluorouracil]
Advanced colorectal cancer
  patients with an objective response to the drug: 20-40%
Advanced colorectal cancer, of the objective responders
  patients with a complete response (complete tumor disappearance): 1-5%
Up to, depending on the regimen
  patients suffering serious gastrointestinal or hematopoietic toxicity: 20-30%

## CC(=O)Nc1ccc(O)cc1 [Acetominophen]
[1]
  dose required for significant liver injury to occur: 10-15 grams

## Nc1c2c(nc3ccccc13)CCCC2 [Cognex, tacrine hydrochloride]
[2]; Alzheimer's disease patients receiving Cognex
  patients showing no change or minimal worsening of their disease: about 45%
[2]; [5]
  patients minimally improved: About 58%
  patients much improved: about 2%

## NNC(=O)c1ccncc1 [INH, Isoniazid]
[3]; persons taking INH
  persons in whom subclinical liver injury occurs: 10-20%
[3]; slow acetylators
  hepatotoxicity in slow acetylators: more hepatotoxic

## interferon alpha
[4]
  patients in whom viral infection is completely and permanently eliminated: less than a quarter of patients
  patients receiving virtually no benefit: Nearly half of patients
